US20150126467A1, “USE OF ALGINATE OLIGOMERS TO ENHANCE THE EFFECTS OF ANTIFUNGAL AGENTS” (AlgiIPharma AS, priority 2011, published 2015)

Legend:
Type in all cases: cell-based
[1] = tested on: Aspergillus niger CCUG 18919; assay: Robotic MIC assay, Aspergillus (Example 4); conditions: A. niger CCUG 18919, 48 hours, Mueller-Hinton broth
Method: (§1) Aspergillus sp. was grown at 30° C. for 96 h on YM-agar. Spores and aerial mycelium was cut out from the agar, suspended in 1 ml YM-broth and dispersed with glass beads (1 mm) in a mini bead beater for 2 min. Glycerol was added to the suspension to 10% and frozen at −80° C.
(§2) Each batch of frozen stock culture was then characterized in separate growth experiments using Mueller-Hinton broth to determine the minimum amount of inoculum giving satisfactory growth after 48 h under the conditions relevant for the MIC assay. This inoculation procedure is used in order to reduce day to day variation in bioassays.
(§3) Robotic minimum inhibitory concentration (MIC) assay was performed as follows. OligoG CF-5/20 was dissolved in medium (Mueller-Hinton broth) to 1.25 times of the desired assay concentrations (2, 6 and 10%). […].
(§4) Two-fold serial dilutions of antifungal agents were made in medium with different concentrations of OligoG CF-5/20, and the solutions were placed in four parallel wells in Nunc 384-well micro plates (30 μl per well in Nunc 242757 microplates). A group of 8 wells with no addition of antifungal agents for each OligoG CF-5/20 concentration was included on each micro plate as growth reference. Each well in the 384-well assay plates was added 7.5 μl of the MH medium inoculated with frozen stock culture of the relevant strains.
(§5) The microplates were placed in plastic bags and incubated without shaking at 34° C. The optical density at 600 nm in the microwells was measured after approximately 24 and 48 hours of incubation. […]

[2] = tested on: Aspergillus fumigatus CCUG 17460; assay: Robotic MIC assay, Aspergillus (Example 4); conditions: A. fumigatus CCUG 17460, 48 hours, Mueller-Hinton broth
Method: as §1, §2, §3, §4, §5

[3] = tested on: Aspergillus flavus CCUG 28296; assay: Robotic MIC assay, Aspergillus (Example 4); conditions: A. flavus CCUG 23451, 48 hours, Mueller-Hinton broth
Method: as §1, §2, §3, §4, §5

[4] = tested on: Cryptococcus neoformans CCUG 23451; assay: Robotic MIC assay, Cryptococcus neoformans (Example 6)
Method: Cryptococcus sp. was grown at 30° C. for 96 h on YM-agar. Spores and aerial mycelium was cut out from the agar, suspended in 1 ml YM-broth and dispersed with glass beads (1 mm) in a mini bead beater for 2 min. The suspension was added glycerol to 10% and frozen at −80° C. Each batch of frozen stock culture was then characterized in separate growth experiments using Mueller-Hinton and RPMI to determine the minimum amount of inoculum giving satisfactory growth after 48 h under the conditions relevant for the MIC assay. This inoculum procedure is used in order to reduce day to day variation in bioassays.
Robotic minimum inhibitory concentration (MIC) assay was performed as follows. OligoG CF-5/20 was dissolved in medium (Mueller-Hinton, RPMI with 2% glucose, Sabouraud or YM) to 1.25 times of the desired assay concentrations (2, 6 and 10%). […].
as §4, with “the” for “the MH”, “innoculated” for “inoculated”
The microplates were placed in plastic bags and incubated without shaking at 34° C. The optical density at 600 nm in the microwells was measured after certain time points from 24 h to 96 h of incubation. […]

C[C@@H]1[C@H](O)[C@@H](C)/C=C/C=C/CC/C=C/C=C/C=C/C=C/C(O[C@H]2O[C@H](C)[C@@H](O)[C@H](N)[C@@H]2O)CC2O[C@](O)(CC(O)C(O)CCC(O)CC(O)CC(O)CC(=O)O[C@H]1C)CC(O)C2C(=O)O (stereo partly shown) [Nystatin, nystatin]
Minimum Inhibitory Concentration (MIC) ([1]; 0% OligoG): 8 µg/mL | Minimum Inhibitory Concentration (MIC) ([1]; 2% OligoG): 4 µg/mL | Minimum Inhibitory Concentration (MIC) ([1]; 6% OligoG): 2 µg/mL | Minimum Inhibitory Concentration (MIC) ([1]; 10% OligoG): 0.5 µg/mL | Minimum Inhibitory Concentration (MIC) ([2]; 0% OligoG): 8 µg/mL | Minimum Inhibitory Concentration (MIC) ([2]; 2% OligoG): 8 µg/mL | Minimum Inhibitory Concentration (MIC) ([2]; 6% OligoG): 4 µg/mL | Minimum Inhibitory Concentration (MIC) ([2]; 10% OligoG): 2 µg/mL | Minimum Inhibitory Concentration (MIC) ([3]; 0% OligoG): 8 µg/mL | Minimum Inhibitory Concentration (MIC) ([3]; 2% OligoG): 8 µg/mL | Minimum Inhibitory Concentration (MIC) ([3]; 6% OligoG): 4 µg/mL | Minimum Inhibitory Concentration (MIC) ([3]; 10% OligoG): 2 µg/mL | Minimum Inhibitory Concentration (MIC) ([4]; MH, 0% OligoG, 96 hours): 4 µg/mL | Minimum Inhibitory Concentration (MIC) ([4]; MH, 2% OligoG, 96 hours): 1 µg/mL | Minimum Inhibitory Concentration (MIC) ([4]; RPMI 2% GLU, 0% OligoG, 72 hours): 8 µg/mL | Minimum Inhibitory Concentration (MIC) ([4]; RPMI 2% GLU, 0% OligoG, 96 hours): 8 µg/mL | Minimum Inhibitory Concentration (MIC) ([4]; RPMI 2% GLU, 2% OligoG, 72 hours): 8 µg/mL | Minimum Inhibitory Concentration (MIC) ([4]; RPMI 2% GLU, 2% OligoG, 96 hours): 8 µg/mL | Minimum Inhibitory Concentration (MIC) ([4]; RPMI 2% GLU, 6% OligoG, 72 hours): 4 µg/mL | Minimum Inhibitory Concentration (MIC) ([4]; RPMI 2% GLU, 6% OligoG, 96 hours): 8 µg/mL | Minimum Inhibitory Concentration (MIC) ([4]; Sabouraud, 0% OligoG, 72 hours): 2 µg/mL | Minimum Inhibitory Concentration (MIC) ([4]; Sabouraud, 0% OligoG, 96 hours): 2 µg/mL | Minimum Inhibitory Concentration (MIC) ([4]; Sabouraud, 2% OligoG, 72 hours): 0.5 µg/mL | Minimum Inhibitory Concentration (MIC) ([4]; Sabouraud, 2% OligoG, 96 hours): 0.5 µg/mL | Minimum Inhibitory Concentration (MIC) ([4]; Sabouraud, 6% OligoG, 72 hours): 0.25 µg/mL | Minimum Inhibitory Concentration (MIC) ([4]; Sabouraud, 6% OligoG, 96 hours): 0.25 µg/mL | Minimum Inhibitory Concentration (MIC) ([4]; YM, 0% OligoG, 72 hours): 8 µg/mL | Minimum Inhibitory Concentration (MIC) ([4]; YM, 0% OligoG, 96 hours): 16 µg/mL | Minimum Inhibitory Concentration (MIC) ([4]; YM, 2% OligoG, 72 hours): 4 µg/mL | Minimum Inhibitory Concentration (MIC) ([4]; YM, 2% OligoG, 96 hours): 8 µg/mL | effect on MIC when OligoG is added to the medium ([4]; media: RPMI with 2% glucose, MH, Sabouraud, YM): reduction in MIC in all media tested
